Measurements from patent publication US5480990A, “Bicyclopolyazamacrocyclocarboxylic acid complexes for use as contrast agents” (The Dow Chemical Company, priority 1993, dated 1996).

Columns and labels:
[1] = Percent metal as a complex (Sephadex column, 159Gd tracer); format: physicochemical
Description: A stock ^159 GdCl3 solution was prepared by adding 2 μL of 3×10^-4 M ^159 GdCl3 in 0.1N HCl to 2 mL of a 3×10^-4 M GdCl3 carrier solution. Appropriate ligand solutions were then prepared in deionized water. The 1:1 ligand/metal complexes were then prepared by combining the ligands (dissolved in 100-500 μL of deionized water) with 2 mL of the stock 159GDCl3 solution, followed by through mixing to give an acidic solution (pH=2). The pH of the solution was then raised to 7.0 using 0.1N NaOH. The percent metal as a complex was then determined by passing a sample of the complex solution through a Sephadex™ G-50 column, eluting with 4:1 saline ([…]) and collecting 2×3 mL fractions. The amount of radioactivity in the combined elutions was then compared with that left on the resin (non-complexed metal is retained on the resin). […]
A solution of the ligand of Example D was prepared by dissolving 3.8 mg of ligand/0.517 mL of deionized water (pH=2). […] After thorough mixing, the percent metal as a complex was determined by passing a sample of the complex solution through a Sephadex™ column, eluting with 4:1 saline (0.85% NaCl/NH4 OH), and collecting 2×3 mL fractions. The amount of radioactivity in the combined elutions was then compared with that left on the resin. […] By this method complexation was determined to be 92%. […] The pH stability was then determined using the General Procedure above.

[2] = Imaging experiments (MRI) in rat, kidney enhancement; format: in vivo, Sprague Dawley rat; settings: intramuscular, 0.05-0.1 mmol Gd/kg body weight
Description: Injectable solutions were first prepared (0.5M) by dissolving the appropriate amount of each complex in 2 mL of deionized water. The pH of the solutions were then adjusted to 7.4 using 1M HCl or NaOH as needed. The total Gd content of each solution was then determined by ICP analysis.
An anethized Sprague Dawley rat was injected intramuscularly with one of the metal solutions described above at a dose of 0.05-0.1 mmol Gd/kg body weight. Images were then taken at various time intervals and compared with a non-injected control at time 0.

[3] = Biodistribution: % injected dose in several tissues of Sprague Dawley rats, 30 min after tail vein injection; format: in vivo; settings: rat
Description: Sprague Dawley rats were allowed to acclimate for five days then injected with 100 μL of the complex solution via a tail vein. The rats weighed between 150 and 200 g at the time of injection. After 30 min. the rats were killed by cervical dislocation and dissected. The amount of radioactivity in each tissue was determined by counting in a NaI scintillation counter coupled to a multichannel analyzer. The counts were compared to the counts in 100 μL standards in order to determine the percentage of the dose in each tissue or organ.
The percent dose in blood was estimated assuming blood to be 7% of the body weight. The percent dose in bone was estimated by multipuling the percent dose in the femur by 25. The percent dose in muscle was estimated assuming muscle to be 43% of the body weight.
In addition to organ biodistribution, chelates of the compounds of Formula (I) were evaluated for efficiency of bone localization since phosphonates are known for their ability to bind to hydroxyapatite.
The percent of the injected dose of complex of Example 1 (^159 Gd-PCTA) in several tissues are given in Table I. The numbers represent the average of 5 rats? per data point.

[4] = commercial contrast agent, background; cited from earlier work

SMILES | complexation after passing through the resin ([1]; 1:1 ligand to metal ratio, after passing through the resin) | complexation (percent metal as a complex) ([1]; 1:1 ligand/metal, before passing through the resin) [%] | uptake by the renal system [2] | enhancement of the kidney image ([2]; vs non-injected control at time 0) | % injected dose in blood, average ([3]; blood (assumed 7% of body weight), 100 μL tail vein, average of 5 rats) [% INJECTED DOSE] | % injected dose in bone, average ([3]; bone (femur x 25), 100 μL tail vein, average of 5 rats) [% INJECTED DOSE] | % injected dose in kidney, average ([3]; kidney, 100 μL tail vein, average of 5 rats) [% INJECTED DOSE] | % injected dose in liver, average ([3]; liver, 100 μL tail vein, average of 5 rats) [% INJECTED DOSE] | % injected dose in muscle, average ([3]; muscle (assumed 43% of body weight), 100 μL tail vein, average of 5 rats) [% INJECTED DOSE] | bone to blood ratio (% dose/g) ([3]; ratio of % dose/g) | bone to liver ratio ([3]; ratio of % dose/g) | bone to muscle ratio ([3]; ratio of % dose/g) | % injected dose in spleen, average ([3]; spleen, 100 μL tail vein, average of 5 rats) [% INJECTED DOSE] | distribution [4] | elimination [4]
O=C([O-])CN1CCN(CC(=O)[O-])Cc2cccc(n2)CN(CC(=O)[O-])CC1.[159Gd+3] [Gd-PCTA, ^159 Gd-3,6,9,15-tetraazabicyclo[9.3.1]pentadeca-1(15),11,13-triene-3,6,9-trimethylenecarboxylic acid] | greater than 98% | 92 | rapidly taken up by the renal system | brilliant enhancement of the kidney cortex as well as peripheral kidney tissue | 5.10 | 7.38 | 1.81 | 0.78 | 7.76 | 7 | 3.5 | 4.8 | 0.05 |  | 
CNC[C@H](O)[C@@H](O)[C@H](O)[C@H](O)CO.CNC[C@H](O)[C@@H](O)[C@H](O)[C@H](O)CO.O=C([O-])CN(CCN(CC(=O)[O-])CC(=O)O)CCN(CC(=O)[O-])CC(=O)O.[Gd+3] [Magnevist, complex of gadolinium with diethylenetriaminepentaacetic acid] |  |  |  |  |  |  |  |  |  |  |  |  |  | freely distributes in extracellular fluid | efficient elimination through the renal system
